What is called IC50 is the concentration that inhibits the measured activity by half.

Molecules are shown by their SMILES.

CBP, sequence (Q92793 1085-1192): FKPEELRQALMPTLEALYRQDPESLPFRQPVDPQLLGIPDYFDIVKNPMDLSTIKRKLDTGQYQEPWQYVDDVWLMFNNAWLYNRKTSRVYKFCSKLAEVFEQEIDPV

The target in this test is CBP (Homo sapiens (Human), UniProt Q92793). Description: HTRF biochemical assay for CBP activity (TR-FRET, bromodomain). It is filed as binding. The settings on record: geometric mean, 10-point 3-fold dilution 33 μM to 1.7 nM, read-out: BROMO IC50 TRF TB CBP (μM gmean). As to the method:
Example 1: HTRF Biochemical Assay for CBP Activity
The assay was performed in a final volume of 6 μL in assay buffer containing 50 mM Hepes (pH 7.5, (0.5M Hepes, pH 7.5 solution; Teknova H1575)), 0.5 mM GSH, 0.01% BGG (0.22 p M filtered, Sigma, G7516-25G), 0.005% BSA (0.22 μM filtered, EMD Millipore Corporation, 126575) and 0.01% Triton X-100 (Sigma, T9284-10L). Nanoliter quantities of 10-point, 3-fold serial dilution in DMSO were pre-dispensed into 1536 assay plates (Corning, #3724BC) for a final test concentration of 33 μM to 1.7 nM, top to lowest dose, respectively. 3 μL of 2×Protein and 3 μL of 2×Peptide Ligand were added to assay plates (pre-stamped with compound). Plates were incubated for varying times at room temperature prior to measuring the signal. TR-FRET (Time-Resolved Fluorescence Resonance Energy Transfer) was measured on the PHERAstar (BMG, equipped with HTRF optic module [337/520/490]) or on the Envision (PerkinElmer, equipped with the TRF Laser unit, TRF dual mirror D400/D505 and emission filters M520 and M495). Data were reported as percent inhibition compared with control wells based on the following equation: % inh=1−((TR-FRET ratio−AveLow)/(AveHigh−AveLow)) where TR-FRET ratio=(Fluorescence at 520 nm/Fluorescence at 490 nm)*10000), AveLow=average TR-FRET ratio of no enzyme control (n=32), and AveHigh=average TR-FRET ratio of DMSO control (n=32). IC50 values were determined by curve fitting of the standard 4 parameter logistic fitting algorithm included in the Activity Base software package: IDBS XE Designer Model205. Data is fitted using the Levenburg Marquardt algorithm. As set forth in Table 2 below, an IC50 value of greater than or equal to 0.001 μM and less than or equal to 0.01 μM is marked “++++”; a value greater than 0.01 μM and less than or equal to 0.1 μM is marked “+++”; a value greater than 0.1 μM and less than or equal to 1 μM is marked “++”; and a value greater than 1 μM and less than 1000 μM is marked “+.” Compounds that were not tested in a particular assay are marked “NT.”
For orientation: TR-FRET usually uses a lanthanide donor and a delayed reading to cut background.
`COC(=O)N1CCc2ccc3c(nc([C@H]4CC[C@H](C(=O)O)CC4)n3[C@@H](C)Cc3ccc(C)c(F)c3)c2C1` (single isomer, unassigned) [Compound 2]: the IC50 lay within 0.001 to 0.01 µM. Then `COC(=O)N1CCc2ccc3c(nc([C@H]4CC[C@H](C(=O)O)CC4)n3[C@@H](C)Cc3cc(F)cc(F)c3)c2C1` (single isomer, unassigned) [Compound 3], with 0.001 to 0.01 µM; and `COC(=O)N1CCc2ccc3c(nc(N4CCC(C(=O)O)CC4)n3[C@@H](C)Cc3ccccc3)c2C1` (single isomer, unassigned) [Compound 5], with 0.001 to 0.01 µM. Then `COC(=O)N1CCc2ccc3c(nc(C4CCCCC4)n3C[C@@H](C(=O)O)c3cc(F)ccc3OC)c2C1` (single isomer, unassigned) [Compound 11], with 0.001 to 0.01 µM; and `COC(=O)N1CCc2ccc3c(nc([C@H]4CCC[C@@H](C(=O)O)C4)n3[C@H](C)Cc3ccccc3)c2C1` (single isomer, unassigned) [Compound 12], with 0.001 to 0.01 µM. The result for `COC(=O)N1CCc2ccc3c(nc([C@H]4CCC[C@@H](C(=O)O)C4)n3[C@@H](C)Cc3ccccc3)c2C1` (single isomer, unassigned) [Compound 13] reads 0.001 to 0.01 µM; that for `COC(=O)N1CCc2ccc3c(nc(N4CCC(C(=O)O)CC4)n3[C@@H](C)Cc3ccccc3Cl)c2C1` (single isomer, unassigned) [Compound 14], 0.001 to 0.01 µM; that for `COC(=O)N1CCc2ccc3c(nc([C@H]4CC[C@H](C(=O)NS(C)(=O)=O)CC4)n3[C@@H](C)Cc3ccccc3)c2C1` (single isomer, unassigned) [Compound 15], 0.001 to 0.01 µM. Take `COC(=O)N1CCc2ccc3c(nc(N4CCC(C(=O)O)CC4)n3[C@H](C)Cc3cc(F)cc(OC)c3)c2C1` (single isomer, unassigned) [Compound 16]: the IC50 fell in the range of 0.001 to 0.01 µM. Then `COC(=O)N1CCc2ccc3c(nc([C@@H]4CCC[C@@H](C(=O)O)C4)n3[C@@H](C)Cc3ccccc3C)c2C1` (single isomer, unassigned) [Compound 17], with 0.001 to 0.01 µM.

With `COC(=O)N1CCc2ccc3c(nc([C@H]4CCC[C@H](C(=O)O)C4)n3[C@@H](C)Cc3ccccc3C)c2C1` (single isomer, unassigned) [Compound 18], the IC50 lay within 0.001 to 0.01 µM.

On to `COC(=O)N1CCc2ccc3c(nc([C@@H]4CCC[C@@H](C(=O)O)C4)n3[C@@H](C)Cc3ccccc3Cl)c2C1` (single isomer, unassigned) [Compound 20], for which the IC50 lay in the range of 0.001 to 0.01 µM. Then `COC(=O)N1CCc2ccc3c(nc(C4CCCCC4)n3C[C@H](C(=O)NS(C)(=O)=O)c3ccccc3)c2C1` (single isomer, unassigned) [Compound 22], with 0.001 to 0.01 µM; and `COC(=O)N1CCc2ccc3c(nc(N4CCC(C(=O)O)CC4)n3[C@@H](C)Cc3ccc(F)c(F)c3)c2C1` (single isomer, unassigned) [Compound 23], with 0.001 to 0.01 µM; and `COC(=O)N1CCc2ccc3c(nc(N4CCC(C(=O)O)CC4)n3[C@@H](C)C(F)(F)c3ccccc3)c2C1` (single isomer, unassigned) [Compound 24], with 0.001 to 0.01 µM.

With `COC(=O)N1CCc2ccc3c(nc(C4CCCCC4)n3C[C@H](C(=O)O)c3cccc(F)c3F)c2C1` (single isomer, unassigned) [Compound 26], the IC50 was 0.001 to 0.01 µM. Then `COC(=O)N1CCc2ccc3c(nc(C4CCCCC4)n3C[C@H](C(=O)O)c3cc(F)c(C)cc3OC)c2C1` (single isomer, unassigned) [Compound 27], with 0.001 to 0.01 µM. Then `COC(=O)N1CCc2ccc3c(nc(C4CCCCC4)n3C[C@@H](C(=O)O)c3cc(F)c(Cl)cc3OC)c2C1` (single isomer, unassigned) [Compound 32], with 0.001 to 0.01 µM; and `COC(=O)N1CCc2ccc3c(nc(N4CCCCC4)n3[C@H](C)Cc3cccc(C(=O)O)c3)c2C1` (single isomer, unassigned) [Compound 33], with 0.001 to 0.01 µM; and `COC(=O)N1CCc2ccc3c(nc(C4CCCC4)n3C[C@@H](CC(=O)O)c3ccccc3)c2C1` (single isomer, unassigned) [Compound 34], with 0.001 to 0.01 µM. The result for `COC(=O)N1CCc2ccc3c(nc(C4CCCCC4)n3C[C@@H](C(=O)NS(C)(=O)=O)c3ccccc3)c2C1` (single isomer, unassigned) [Compound 138] reads 0.001 to 0.01 µM; that for `COC(=O)N1CCc2ccc3c(nc([C@@H]4CCC[C@@H](C(=O)O)C4)n3C[C@@H](C)c3ccc(F)c(F)c3)c2C1` (single isomer, unassigned) [Compound 148], 0.001 to 0.01 µM; that for `COC(=O)N1CCc2ccc3c(nc([C@H]4CCC[C@H](C(=O)O)C4)n3[C@H](C)Cc3ccccc3C)c2C1` (single isomer, unassigned) [Compound 163], 0.001 to 0.01 µM. As for `COC(=O)N1CCc2ccc3c(nc(C4CCCC4)n3C[C@H](CC(=O)O)c3ccccc3)c2C1` (single isomer, unassigned) [Compound 174], the IC50 lay in the range of 0.01 to 0.1 µM. Then `COC(=O)N1CCc2ccc3c(nc([C@H]4CCC[C@H](C(=O)O)C4)n3[C@H](C)Cc3ccccc3Cl)c2C1` (single isomer, unassigned) [Compound 176], with 0.01 to 0.1 µM; and `COC(=O)N1CCc2ccc3c(nc(C4CCCCC4)n3C[C@H](CC(=O)O)c3ccc(F)c(F)c3)c2C1` (single isomer, unassigned) [Compound 189], with 0.01 to 0.1 µM; and `COC(=O)N1CCc2ccc3c(nc([C@@H]4CCC[C@H](C(=O)O)C4)n3[C@@H](C)Cc3ccccc3)c2C1` (single isomer, unassigned) [Compound 203], with 0.01 to 0.1 µM. The result for `COC(=O)N1CCc2ccc3c(nc(C4CCCCC4)n3C[C@H](C(=O)O)c3cc(F)c(Cl)cc3OC)c2C1` (single isomer, unassigned) [Compound 229] reads 0.01 to 0.1 µM; that for `COC(=O)N1CCc2ccc3c(nc([C@@H]4CCC[C@H](C(=O)O)C4)n3[C@H](C)Cc3ccccc3)c2C1` (single isomer, unassigned) [Compound 233], 0.01 to 0.1 µM.

Take `COC(=O)N1CCc2ccc3c(nc([C@@H]4CCC[C@@H](C(=O)O)C4)n3[C@H](C)Cc3ccccc3Cl)c2C1` (single isomer, unassigned) [Compound 263]: the IC50 was in the range of 0.01 to 0.1 µM. The result for `COC(=O)N1CCc2ccc3c(nc(C4CCCCC4)n3C[C@@H](C(=O)O)c3cc(F)c(C)cc3OC)c2C1` (single isomer, unassigned) [Compound 278] reads 0.01 to 0.1 µM; that for `COC(=O)N1CCc2ccc3c(nc([C@H]4CC[C@H](C(=O)O)CC4)n3[C@H](C)Cc3ccc(C)c(F)c3)c2C1` (single isomer, unassigned) [Compound 283], 0.01 to 0.1 µM.

Take `COC(=O)N1CCc2ccc3c(nc([C@@H]4CCC[C@@H](C(=O)O)C4)n3[C@H](C)Cc3ccccc3C)c2C1` (single isomer, unassigned) [Compound 284]: the IC50 fell in the range of 0.01 to 0.1 µM. The result for `COC(=O)N1CCc2ccc3c(nc([C@H]4CC[C@H](C(=O)NS(C)(=O)=O)CC4)n3[C@H](C)Cc3ccccc3)c2C1` (single isomer, unassigned) [Compound 290] reads 0.1 to 1 µM; that for `COC(=O)N1CCc2ccc3c(nc(N4CCC(C(=O)O)CC4)n3[C@H](C)Cc3ccc(F)c(F)c3)c2C1` (single isomer, unassigned) [Compound 307], 0.1 to 1 µM.

On to `COC(=O)N1CCc2ccc3c(nc(N4CCC(C(=O)O)CC4)n3[C@H](C)Cc3ccccc3)c2C1` (single isomer, unassigned) [Compound 325], for which the half-maximal inhibitory concentration (IC50) is 0.1 to 1 µM. Then `COC(=O)N1CCc2ccc3c(nc([C@H]4CCC[C@H](C(=O)O)C4)n3C(C)Cc3ccccc3Cl)c2C1` (stereo in doubt) [Compound 19, (1S,3S)-3-{3-[(2R)-1-(2-chlorophenyl)propan-2-yl]-8-(methoxycarbonyl)-3H,6H,7H,8H,9H-imidazo[4,5-h]isoquinolin-2-yl}cyclohexane-1-carboxylic acid], with 0.001 to 0.01 µM; and `COC(=O)N1CCc2ccc3c(nc(C4CCCC(C(=O)O)C4)n3C[C@H](C)c3ccc(F)c(F)c3)c2C1` (stereo in doubt) [Compound 30, (1S,3S)-3[3-[(2R)-2-(3,4-difluorophenyl)propyl]-8-(methoxycarbonyl)-3H,6H,7H,8H,9H-imidazo[4,5-h]isoquinolin-2-yl]cyclohexane-1-carboxylic acid], with 0.001 to 0.01 µM.

Values taken from patent US20250188079A1, “INHIBITING CYCLIC AMP-RESPONSIVE ELEMENT-BINDING PROTEIN (CREB)” (Forma Therapeutics, Inc., priority 2019, published 2025).
